Reference: ChEMBL document CHEMBL4680293, “Tubulin inhibitory activity of a novel colchicine-binding compounds based on a dinaphthospiropyranran scaffold” (Bioorg Med Chem, 2021)
The source made the active and inactive calls. The rule behind the calls is not given here.

Tests used:
MOLT-4 = test: Anti-cancer activity against human MOLT-4 cells assessed as cell growth inhibition measured after 48 hrs by SRB method; assay type: functional, cell-based
OVCAR-3 = test: Anti-cancer activity against human OVCAR-3 cells assessed as cell growth inhibition measured after 48 hrs by SRB method; assay type: functional, cell-based
PC-3 = test: Anti-cancer activity against human PC-3 cells assessed as cell growth inhibition measured after 48 hrs by SRB method; assay type: functional, cell-based
MDA-MB-435 = test: Anti-cancer activity against human MDA-MB-435 cells assessed as cell growth inhibition measured after 48 hrs by SRB method; assay type: functional, cell-based
CAKI-1 = test: Anti-cancer activity against human CAKI-1 cells assessed as cell growth inhibition measured after 48 hrs by SRB method; assay type: functional, cell-based
SF-539 = test: Anti-cancer activity against human SF-539 cells assessed as cell growth inhibition measured after 48 hrs by SRB method; assay type: functional, cell-based
SNB-75 = test: Anti-cancer activity against human SNB-75 cells assessed as cell growth inhibition measured after 48 hrs by SRB method; assay type: functional, cell-based
RPMI-8226 = test: Anti-cancer activity against human RPMI-8226 cells assessed as cell growth inhibition measured after 48 hrs by SRB method; assay type: functional, cell-based
OVCAR-8 = test: Anti-cancer activity against human OVCAR-8 cells assessed as cell growth inhibition measured after 48 hrs by SRB method; assay type: functional, cell-based
NCI-H322M = test: Anti-cancer activity against human NCI-H322M cells assessed as cell growth inhibition measured after 48 hrs by SRB method; assay type: functional, cell-based
NCI/ADR-RES = test: Anti-cancer activity against human NCI/ADR-RES cells assessed as cell growth inhibition measured after 48 hrs by SRB method; assay type: functional, cell-based
[1] = Anti-cancer activity against human colon cancer cells assessed as cell growth inhibition measured after 48 hrs by SRB method; assay type: functional; details: Colon cancer cell line
NCI-H226 = test: Anti-cancer activity against human NCI-H226 cells assessed as cell growth inhibition measured after 48 hrs by SRB method; assay type: functional, cell-based
HCC 2998 = test: Anti-cancer activity against human HCC2998 cells assessed as cell growth inhibition measured after 48 hrs by SRB method; assay type: functional, cell-based
K562 = test: Anti-cancer activity against human K562 cells assessed as cell growth inhibition measured after 48 hrs by SRB method; assay type: functional, cell-based
786-0 = test: Anti-cancer activity against human 786-0 cells assessed as cell growth inhibition measured after 48 hrs by SRB method; assay type: functional, cell-based
T47D = test: Anti-cancer activity against human T47D cells assessed as cell growth inhibition measured after 48 hrs by SRB method; assay type: functional, cell-based
HCT-116 = test: Anti-cancer activity against human HCT-116 cells assessed as cell growth inhibition measured after 48 hrs by SRB method; assay type: functional, cell-based
SK-MEL-28 = test: Anti-cancer activity against human SK-MEL-28 cells assessed as cell growth inhibition measured after 48 hrs by SRB method; assay type: functional, cell-based
OVCAR-4 = test: Anti-cancer activity against human OVCAR-4 cells assessed as cell growth inhibition measured after 48 hrs by SRB method; assay type: functional, cell-based
U-251 = test: Anti-cancer activity against human U251 cells assessed as cell growth inhibition measured after 48 hrs by SRB method; assay type: functional, cell-based
MDA-MB-231 = test: Anti-cancer activity against human MDA-MB-231 cells assessed as cell growth inhibition measured after 48 hrs by SRB method; assay type: functional, cell-based
Tubulin (Homo sapiens) = Tubulin (Homo sapiens) (UniProt P68371+Q9H4B7+P0DPH7+P68366+Q13509+Q71U36+P04350+Q3ZCM7+P07437+P68363+Q9BQE3+Q6PEY2+Q13885+Q9BVA1+Q9BUF5); test: Disruption of tubulin in human HCT-116 cells assessed as induction of tubulin reorganization at 20 uM after 48 hrs by DAPI staining based immunofluorescence method; assay type: cell-based
UO-31 = test: Anti-cancer activity against human UO-31 cells assessed as cell growth inhibition measured after 48 hrs by SRB method; assay type: functional, cell-based
[2] = Anti-cancer activity against human central nervous system cells assessed as cell growth inhibition measured after 48 hrs by SRB method; assay type: functional; details: CNS cell
NCI-H522 = test: Anti-cancer activity against human NCI-H522 cells assessed as cell growth inhibition measured after 48 hrs by SRB method; assay type: functional, cell-based
[3] = time 48 hrs, read-out: LC50 (the source's name)

## C1=C2CNCC3=Cc4c(ccc5ccccc45)OC23Oc2ccc3ccccc3c21
MOLT-4; MOLT-4, 48 h
  IC50: 5.13 µM
MOLT-4; MOLT-4, time 48 hrs
  GI50: 2.88 µM
  LC50: 4 µM
  TGI: 10.5 µM
OVCAR-3; OVCAR-3, 48 h
  IC50: 4.07 µM
OVCAR-3; OVCAR-3, time 48 hrs
  GI50: 2.34 µM
  LC50: 4.71 µM
  TGI: 5.5 µM
PC-3; PC-3, 48 h
  IC50: 10 µM
PC-3; PC-3, time 48 hrs
  GI50: 3.47 µM
  LC50: 4.16 µM
  TGI: 18.2 µM
MDA-MB-435; MDA-MB-435, 48 h
  IC50: 2.4 µM
MDA-MB-435; MDA-MB-435, time 48 hrs
  GI50: 1.41 µM
  TGI: 3.24 µM
CAKI-1; CAKI-1, 48 h
  IC50: 12 µM
CAKI-1; CAKI-1, time 48 hrs
  GI50: 3.31 µM
  TGI: 20.9 µM
CAKI-1; CAKI-1, time 48 hrs, read-out: LC50 (the source's name)
  CC50: 4.07 µM
SF-539; SF-539, 48 h
  IC50: 6.03 µM
SF-539; SF-539, time 48 hrs
  GI50: 3.39 µM
  LC50 (concentration killing 50% of cells): 4 µM
  TGI: 14.8 µM
SNB-75; SNB-75, 48 h
  IC50: 11.2 µM
SNB-75; SNB-75, time 48 hrs
  GI50: 2.34 µM
  LC50: 4.18 µM
  TGI: 11.5 µM
RPMI-8226; RPMI-8226, 48 h
  IC50: 13.8 µM
RPMI-8226; RPMI-8226, time 48 hrs
  GI50: 5.5 µM
  TGI: 64.6 µM
RPMI-8226; RPMI-8226, time 48 hrs, read-out: LC50 (the source's name)
  CC50: 4 µM
OVCAR-8; OVCAR-8, 48 h
  IC50: 4.79 µM
OVCAR-8; OVCAR-8, time 48 hrs
  GI50: 3.02 µM
  TGI: 14.8 µM
OVCAR-8; OVCAR-8, time 48 hrs, read-out: LC50 (the source's name)
  CC50: 4 µM
NCI-H322M; 48 h
  IC50: 27.5 µM
NCI-H322M; time 48 hrs
  GI50: 10.7 µM
  TGI: 33.1 µM
NCI/ADR-RES; 48 h
  IC50: 3.8 µM
NCI/ADR-RES; time 48 hrs
  GI50: 2.09 µM
  TGI: 6.03 µM
NCI/ADR-RES; [3]
  CC50: 4 µM
[1]
  GI50: 3.09 µM
NCI-H226; NCI-H226, 48 h
  IC50: 25.1 µM
NCI-H226; NCI-H226, time 48 hrs
  GI50: 10.5 µM
  TGI: 27.5 µM
HCC 2998; HCC 2998, 48 h
  IC50: 8.51 µM
HCC 2998; HCC 2998, time 48 hrs
  GI50: 3.98 µM
  LC50 (lethal concentration, 50% cell kill): 4.11 µM
  TGI: 19.5 µM
K562; K562, 48 h
  IC50: 3.55 µM
K562; K562, time 48 hrs
  GI50: 2.95 µM
  TGI: 21.4 µM
K562; K562, time 48 hrs, read-out: LC50 (the source's name)
  CC50: 4 µM
786-0; 786-0, 48 h
  IC50: 9.55 µM
786-0; 786-0, time 48 hrs
  GI50: 5.13 µM
  TGI: 31.6 µM
T47D; 48 h
  IC50: 24.5 µM
T47D; time 48 hrs
  GI50: 8.32 µM
  TGI: 23.4 µM
T47D; [3]
  CC50: 4.22 µM
HCT-116; HCT-116, 48 h
  IC50: 3.72 µM
HCT-116; HCT-116, time 48 hrs
  GI50: 3.02 µM
  LC50: 4 µM
  TGI: 13.2 µM
SK-MEL-28
  TGI: inactive
SK-MEL-28; SK-MEL-28, 48 h
  IC50: 10 µM
SK-MEL-28; SK-MEL-28, time 48 hrs
  GI50: 7.41 µM
OVCAR-4; OVCAR-4, 48 h
  IC50: 11.7 µM
OVCAR-4; OVCAR-4, time 48 hrs
  GI50: 4.68 µM
  LC50: 4.21 µM
  TGI: 20 µM
U-251; U-251, 48 h
  IC50: 5.13 µM
U-251; U-251, time 48 hrs
  GI50: 3.24 µM
  LC50 (concentration killing 50% of cells): 4.21 µM
  TGI: 14.8 µM
MDA-MB-231; MDA-MB-231, 48 h
  IC50: 22.9 µM
MDA-MB-231; MDA-MB-231, time 48 hrs
  GI50: 9.33 µM
  TGI: 26.9 µM
MDA-MB-231; MDA-MB-231, time 48 hrs, read-out: LC50 (the source's name)
  CC50: 4.12 µM
Tubulin (Homo sapiens)
  Activity: Active
UO-31; UO-31, 48 h
  IC50: 17.4 µM
UO-31; UO-31, time 48 hrs
  GI50: 3.55 µM
  TGI: 21.4 µM
UO-31; UO-31, time 48 hrs, read-out: LC50 (the source's name)
  CC50: 4.16 µM
[2]
  GI50: 3.8 µM
NCI-H522; NCI-H522, 48 h
  IC50: 9.55 µM
NCI-H522; NCI-H522, time 48 hrs
  GI50: 3.02 µM
  TGI: 13.2 µM
NCI-H522; NCI-H522, time 48 hrs, read-out: LC50 (the source's name)
  CC50: 4.15 µM
